Where a name gives a salt, the structure may show the parent alone.
Columns and labels:
[1] = test system: DOPAC (3,4-dihydroxyphenylacetic acid) in the rat striatum; assay: Increase of DOPAC in the rat striatum after systemic administration (in vivo neurochemistry); conditions: estimated ED50 on increase of DOPAC in rat striatum, curve fit, range in brackets covers 95% of fits; for ED50 DOPAC: s.c.; for ED50: Rattus norvegicus, sc
Text: After the behavioural activity sessions, the rats are decapitated and their brains rapidly taken out and put on an ice-cold petri-dish. The limbic forebrain, the striatum, the frontal cortex and the remaining hemispheral parts of each rat are dissected and frozen. Each brain part is subsequently analyzed with respect to its content of monoamines and their metabolites.
The monoamine transmitter substances (NA (noradrenaline), DA (dopamine), 5-HT (serotonin)) as well as their amine (NM (normethanephrine), 3-MT (3-methoxytyramine)) and acid (DOPAC (3,4-dihydroxyphenylacetic acid), 5-HIAA (5-hydroxyindoleacetic acid), HVA (homovanillic acid)) metabolites are quantified in brain tissue homogenates by HPLC separations and electrochemical detection.
The analytical method is based on two chromatographic separations dedicated for amines or acids. Two chromatographic systems share a common auto injector with a 10-port valve and two sample loops for simultaneous injection on the two systems. Both systems are equipped with a reverse phase column (Luna C18(2), dp 3 μm, 50*2 mm i.d., Phenomenex) and electrochemical detection is accomplished at two potentials on glassy carbon electrodes (MF-1000, Bioanalytical Systems, Inc.). The column effluent is passed via a T-connection to the detection cell or to a waste outlet. This is accomplished by two solenoid valves, which block either the waste or detector outlet. By preventing the chromatographic front from reaching the detector, better detection conditions are achieved. The aqueous mobile phase (0.4 ml/min) for the acid system contains citric acid 14 mM, sodium citrate 10 mM, MeOH 15% (v/v) and EDTA 0.1 mM. Detection potentials relative to Ag/AgCl reference are 0.45 and 0.60V. The aqueous ion pairing mobile phase (0.5 ml/min) for the amine system contains citric acid 5 mM, sodium citrate 10 mM, MeOH 9% (v/v), MeCN 10.5% v/v), decane sulfonic acid 0.45 mM, and EDTA 0.1 mM. Detection potentials relative to Ag/AgCl reference are 0.45 and 0.65V.
ED50 values for the increase of DOPAC in striatum are calculated by curve fitting.

[2] = test system: Locomotor activity in drug-naive rats; assay: Locomotor activity in drug-naive rats (in vivo behaviour); set-up: species or system rat; conditions: recorded for 60 minutes immediately after drug administration
Text: Photobeam sensors are spaced 2.5 cm apart.

[3] = test system: amphetamine-induced hyper-locomotion; assay: Reduction of amphetamine-induced hyper-locomotion (in vivo behaviour); conditions: range in brackets covers 95% of fits; for ED50: Rattus norvegicus, read-out: ED50 reduction of amphetamine-induced hyper-locomotion, rats pre-treated with d-amphetamine 1.5 mg/kg i.p., test compound s.c., curve fit

Compound	melting point	ED50 DOPAC [1]	Locomotor activity ([2]; 3.7 μmol/kg)	Locomotor activity ([2]; 11 μmol/kg)	Locomotor activity ([2]; 33 μmol/kg)	ED50 [3]	ED50 reduction of amphetamine-induced hyper-locomotion ([3]; rats pre-treated with d-amphetamine 1.5 mg/kg i.p., test compound s.c., curve fit)	ED50 [1]
O=S(=O)(c1ccc2c(c1)OC(CN1CCCC1)OC2)C(F)(F)F (centres unmarked) (as salt: fumaric acid salt) [Example 7, 1-({7-[(TRIFLUOROMETHYL)SULFONYL]-4H-1,3-BENZODIOXIN-2-YL}METHYL)PYRROLIDINE]	184 °C	–	–	–	–	–	–	–
CCNCC1OCc2ccc(S(=O)(=O)C(F)(F)F)cc2O1 (centres unmarked) (as salt: hydrochloric acid salt)	169 °C	–	–	–	–	–	–	–
CCCNCC1OCc2ccc(C(F)(F)F)cc2O1 (centres unmarked) (as salt: hydrochloric acid salt) [Example 1, N-{[7-(TRIFLUOROMETHYL)-4H-1,3-BENZODIOXIN-2-YL]METHYL}PROPAN-1-AMIN]	203 °C	–	–	–	–	–	–	–
CCCNCC1OCc2ccc(S(C)(=O)=O)cc2O1 (centres unmarked) (as salt: hydrochloric acid salt) [Example 3, N-{[7-(METHYLSULFONYL)-4H-1,3-BENZODIOXIN-2-YL]METHYL}PROPAN-1-AMINE]	213 °C	–	–	–	–	–	–	–
CCCNCC1OCc2ccc(S(=O)(=O)C(F)(F)F)cc2O1 (centres unmarked) (as salt: hydrochloric acid salt) [Example 8, N-({7-[(TRIFLUOROMETHYL)SULFONYL]-4H-1,3-BENZODIOXIN-2-YL}METHYL)PROPAN-1-AMINE]	201 °C	–	–	–	–	–	–	–
CNCC1OCc2ccc(S(C)(=O)=O)cc2O1 (centres unmarked) (as salt: hydrochloric acid salt) [Example 12, N-METHYL-1-[7-(METHYLSULFONYL)-4H-1,3-BENZODIOXIN-2-YL]METHANAMINE]	225 °C	–	–	–	–	–	–	–
CCCNCC1OCc2cc(F)c(Br)cc2O1 (centres unmarked) (as salt: hydrochloric acid salt) [Example 19, N-[(7-BROMO-6-FLUORO-4H-1,3-BENZODIOXIN-2-YL)METHYL]PROPAN-1-AMINE]	182 °C	–	–	–	–	–	–	–
CCCNCC1OCc2c(F)cc(Br)cc2O1 (centres unmarked) (as salt: oxalic acid salt) [Example 16, N-[(7-BROMO-5-FLUORO-4H-1,3-BENZODIOXIN-2-YL)METHYL]PROPAN-1-AMINE]	215 °C	–	–	–	–	–	–	–
CCCNCC1OCc2ccc(S(C)(=O)=O)cc2O1 (single isomer, unassigned; (+)) [Example 5, (+)-N-{[7-(METHYLSULFONYL)-4H-1,3-BENZODIOXIN-2-YL]METHYL}PROPAN-1-AMINE]	–	12 (9.3-14) μmol/kg	9173 ± 3160 counts/60 min ± SEM	8274 ± 801 counts/60 min ± SEM	4854 ± 771 counts/60 min ± SEM	15 µmol/kg	–	–
CCCNCC1OCc2ccc(S(C)(=O)=O)cc2O1 (single isomer, unassigned; (-)) [Example 4, (−)-N-{[7-(METHYLSULFONYL)-4H-1,3-BENZODIOXIN-2-YL]METHYL}PROPAN-1-AMINE]	–	27 (23-31) μmol/kg	9158 ± 2094 counts/60 min ± SEM	11153 ± 1257 counts/60 min ± SEM	12588 ± 331 counts/60 min ± SEM	–	27 (19-35) μmol/kg	–
CCCNCC1OCc2ccc(C(F)(F)F)cc2O1 (centres unmarked) [Example 1, N-{[7-(TRIFLUOROMETHYL)-4H-1,3-BENZODIOXIN-2-YL]METHYL}PROPAN-1-AMIN]	–	–	8038 ± 1487 counts/60 min ± SEM	7279 ± 968 counts/60 min ± SEM	2682 ± 802 counts/60 min ± SEM	3.9 µmol/kg	–	17 µmol/kg
O=S(=O)(c1ccc2c(c1)OC(CN1CCCC1)OC2)C(F)(F)F (centres unmarked) [Example 7, 1-({7-[(TRIFLUOROMETHYL)SULFONYL]-4H-1,3-BENZODIOXIN-2-YL}METHYL)PYRROLIDINE]	–	–	9548 ± 1455 counts/60 min ± SEM	7270 ± 278 counts/60 min ± SEM	11818 ± 2775 counts/60 min ± SEM	50 µmol/kg	–	48 µmol/kg
CCCNCC1OCc2ccc(S(=O)(=O)C(F)(F)F)cc2O1 (centres unmarked) [Example 8, N-({7-[(TRIFLUOROMETHYL)SULFONYL]-4H-1,3-BENZODIOXIN-2-YL}METHYL)PROPAN-1-AMINE]	–	–	11601 ± 583 counts/60 min ± SEM	7064 ± 1032 counts/60 min ± SEM	2641 ± 757 counts/60 min ± SEM	4.9 µmol/kg	–	7 µmol/kg
CCCNCC1OCc2c(F)cc(Br)cc2O1 (centres unmarked) [Example 16, N-[(7-BROMO-5-FLUORO-4H-1,3-BENZODIOXIN-2-YL)METHYL]PROPAN-1-AMINE]	–	–	8637 ± 1217 counts/60 min ± SEM	7537 ± 2127 counts/60 min ± SEM	7393 ± 1395 counts/60 min ± SEM	–	–	20 µmol/kg
CCCNCC1OCc2c(F)cc(S(C)(=O)=O)cc2O1 (centres unmarked) [Example 17, N-{[5-FLUORO-7-(METHYLSULFONYL)-4H-1,3-BENZODIOXIN-2-YL]METHYL}PROPAN-1-AMINE]	–	–	10520 ± 1381 counts/60 min ± SEM	8330 ± 2194 counts/60 min ± SEM	3319 ± 140 counts/60 min ± SEM	–	–	8.6 µmol/kg
CCCNCC1OCc2cc(F)c(S(C)(=O)=O)cc2O1 (centres unmarked) [Example 20, N-{[6-FLUORO-7-(METHYLSULFONYL)-4H-1,3-BENZODIOXIN-2-YL]METHYL}PROPAN-1-AMINE]	–	–	8830 ± 1277 counts/60 min ± SEM	10181 ± 1385 counts/60 min ± SEM	5502 ± 474 counts/60 min ± SEM	–	–	11 µmol/kg
CS(=O)(=O)c1ccc2c(c1)OC(CN1CCCCC1)OC2 (centres unmarked) [Example 21, 1-{[7-(METHYLSULFONYL)-4H-1,3-BENZODIOXIN-2-YL]METHYL}PIPERIDINE]	–	–	8285 ± 721 counts/60 min ± SEM	6585 ± 707 counts/60 min ± SEM	4197 ± 923 counts/60 min ± SEM	14 µmol/kg	–	13 µmol/kg
